Values after ≈ are worked out from the molar mass of the structure shown.
Columns and labels:
[1] = test system: Polio 2; experiment: microbe, parasite or virus in culture; format: cell-based, poliovirus; settings: Enterovirus C, HeLa, read-out: Polio 2 MIC
[2] = test system: human rhinovirus (HRV) serotypes; experiment: microbe, parasite or virus in culture; format: cell-based; settings: for MIC50: read-out: Rhinovirus MIC50; for IC (MIC80 of serotype panel): read-out: Rhinovirus MIC80

Structure (SMILES) | MIC [1] | MIC50 [2] | IC (MIC80 of serotype panel) [2]
CCc1cc(C(=O)NCCCl)cc(C)c1OCCCCCc1cc(C)no1 [157(c), N-(2-Chloroethyl)-3-ethyl-5-methyl-4-{[5-(3-methyl-5-isoxazolyl)pentyl]oxy}benzamide] | 2.1 µg/mL (≈ 5.34 µM) | 0.49 µg/mL (≈ 1.25 µM) | 1.2 µg/mL
Cc1noc(CCCCCCCOc2ccc(C3=NCCO3)cc2Cl)c1CO [Example 43] | 0.3 µg/mL (≈ 0.737 µM) | 0.31 µg/mL (≈ 0.762 µM) | 1 µg/mL
COc1cc(C2=NCCO2)ccc1OCCCCCc1cc(C)no1 [Example 42, 5-{5-[4-(4,5-Dihydro-2oxazolyl)-2-methoxyphenoxy]pentyl}-3-methylisoxazole] | 0.12 µg/mL (≈ 0.348 µM) | 0.35 µg/mL (≈ 1.02 µM) | 0.64 µg/mL
CCC(=O)Nc1cc(C2=NCCO2)ccc1OCCCCCc1cc(C)no1 [Example 102, 5-{5-[4-(4,5-Dihydro-2-oxazolyl)-2-(propionylamino)phenoxy]pentyl}-3-methylisoxazole] | 12.5 µg/mL (≈ 32.4 µM) | 12.5 µg/mL (≈ 32.4 µM) | 99 µg/mL
Cc1noc(CCCCCCCOc2ccc(C3=NCCO3)cc2)c1CO [29(b), 5-{7-[4-(4,5-Dihydro-2-oxazolyl)phenoxy]heptyl}-3-methyl-4-isoxazolemethanol] | 0.02 µg/mL (≈ 0.0537 µM) | 1.25 µg/mL (≈ 3.34 µM) | 1.7 µg/mL
Cc1cc(CCCCCOc2c(C)cc(-c3cocn3)cc2C)on1 [Example 144, 5-{5-[2,6-Dimethyl-4-(4-oxazolyl)phenoxy]pentyl}-3-methylisoxazole] | 12.5 µg/mL (≈ 36.7 µM) | 0.14 µg/mL (≈ 0.411 µM) | 1.1 µg/mL
COCc1cc(CCCCCOc2c(Cl)cc(C3=NCCO3)cc2Cl)on1 [Example 117, 5-{5-[2,6-Dichloro-4-(4,5-dihydro-2-oxazolyl)phenoxy]pentyl}-3-(methoxymethyl)isoxazole] | 0.39 µg/mL (≈ 0.944 µM) | 0.09 µg/mL (≈ 0.218 µM) | 0.31 µg/mL
Cc1cc(CCCCCCOc2ccc(C3=NCCO3)cc2)on1 [14(b), 5-{6-[4-(4,5-Dihydro-2-oxazolyl)phenoxy]hexyl}-3-methylisoxazole] | 0.017 µg/mL (≈ 0.0518 µM) | 0.8 µg/mL (≈ 2.44 µM) | 25.5 µg/mL
Cc1cc(CCCCCOc2c(Cl)cc(-c3cnco3)cc2Cl)on1 [Example 98, 5-{5-[2,6-Dichloro-4-(5-oxazolyl)phenoxy]pentyl}-3-methylisoxazole] | 12.5 µg/mL (≈ 32.8 µM) | 0.21 µg/mL (≈ 0.551 µM) | 2.8 µg/mL
Cc1cc(CCCCCOc2ccc(C3=NC(C)CO3)c(Cl)c2)on1 (stereo not drawn) [Example 77, 5-{5-[3-Chloro-4-(4,5-dihydro-4-methyl-2-oxazolyl)phenoxy]pentyl}-3-methylisoxazole] | 0.05 µg/mL (≈ 0.138 µM) | 0.088 µg/mL (≈ 0.243 µM) | 1.47 µg/mL
Cc1cc(CCCCCCc2c(Cl)cc(C3=NCCO3)cc2Cl)on1 [163(b), 5-{6-[2,6-Dichloro-4-(4,5-dihydro-2-oxazolyl)phenyl]hexyl}-3-methylisoxazole] | 1.4 µg/mL (≈ 3.67 µM) | 0.49 µg/mL (≈ 1.29 µM) | 0.73 µg/mL
Cc1cc(CCCCCOc2ccc(C3=NCCO3)cc2N(C)C)on1 [Example 100, 5-{5-[4-(4,5-Dihydro-2-oxazolyl)-2-(dimethylamino)phenoxy]pentyl}-3-methylisoxazole] | 6.2 µg/mL (≈ 17.3 µM) | 0.76 µg/mL (≈ 2.13 µM) | 99 µg/mL
Cc1cc(CCCCCCCOc2ccc(C3=NCC(C)O3)cc2)on1 (stereo not drawn) [34(b), 5-{7-[4-(4,5-Dihydro-5-methyl-2-oxazolyl)phenoxy]heptyl}-3-methylisoxazole] | 0.49 µg/mL (≈ 1.37 µM) | 0.2 µg/mL (≈ 0.561 µM) | 26.5 µg/mL
Cc1cc(CCCCCOc2ccc(-c3ncco3)cc2Br)on1 [Example 92, 5-{5-[2-Bromo-4-(2-oxazolyl)phenoxy]pentyl}-3-methylisoxazole] | 0.07 µg/mL (≈ 0.179 µM) | 0.07 µg/mL (≈ 0.179 µM) | 0.61 µg/mL
Cc1cc(CCCCCCOc2ccc(C3=NC(C)CO3)cc2Cl)on1 (stereo not drawn) [Example 48, 5-{6-[2-Chloro-(4,5-dihydro-4-methyl-2-oxazolyl)phenoxy]hexyl}-3-methylisoxazole] | 2.3 µg/mL (≈ 6.1 µM) | 0.13 µg/mL (≈ 0.345 µM) | 0.37 µg/mL
